In patent US10988523B2, “Modified lipidated Relaxin B chain peptides and their therapeutic use” (Sanofi, priority 2018, dated 2021):
*1 amine or outer side, *2 acyl side, *3 side chain or, on linkers, in order; H or OH if unused. Where a SMILES comes first, the peptide text is derived from it. Side-chain parts run from the residue outwards. [ ]: non-standard residue; d: D form. The star is where a group is joined. Lys(Me3) = C[N+](C)(C)CCCC[C@H](N)C(=O)O; γGlu = O=C(O)[C@H](CCC(=O)[*:2])N[*:1]; Arg(Me) = CNC(=N)NCCC[C@H](N)C(=O)O; Stearoyl = CCCCCCCCCCCCCCCCCC(=O)*; Palmitoyl = CCCCCCCCCCCCCCCC(=O)*; Cit = NC(=O)NCCC[C@H](N)C(=O)O; αMeK = C[C@](N)(CCCCN)C(=O)O; Nle = CCCC[C@H](N)C(=O)O; AEEA = NCCOCCOCC(=O)O; Aib = CC(C)(N)C(=O)O

Target: T1, RXFP1 (Homo sapiens, UniProt Q9HBX9)
T1 construct: OVCAR5 cells expressing endogenous RXFP1; endogenous in cells; host or cells: OVCAR5 cells
T1 sequence (Q9HBX9 1-757): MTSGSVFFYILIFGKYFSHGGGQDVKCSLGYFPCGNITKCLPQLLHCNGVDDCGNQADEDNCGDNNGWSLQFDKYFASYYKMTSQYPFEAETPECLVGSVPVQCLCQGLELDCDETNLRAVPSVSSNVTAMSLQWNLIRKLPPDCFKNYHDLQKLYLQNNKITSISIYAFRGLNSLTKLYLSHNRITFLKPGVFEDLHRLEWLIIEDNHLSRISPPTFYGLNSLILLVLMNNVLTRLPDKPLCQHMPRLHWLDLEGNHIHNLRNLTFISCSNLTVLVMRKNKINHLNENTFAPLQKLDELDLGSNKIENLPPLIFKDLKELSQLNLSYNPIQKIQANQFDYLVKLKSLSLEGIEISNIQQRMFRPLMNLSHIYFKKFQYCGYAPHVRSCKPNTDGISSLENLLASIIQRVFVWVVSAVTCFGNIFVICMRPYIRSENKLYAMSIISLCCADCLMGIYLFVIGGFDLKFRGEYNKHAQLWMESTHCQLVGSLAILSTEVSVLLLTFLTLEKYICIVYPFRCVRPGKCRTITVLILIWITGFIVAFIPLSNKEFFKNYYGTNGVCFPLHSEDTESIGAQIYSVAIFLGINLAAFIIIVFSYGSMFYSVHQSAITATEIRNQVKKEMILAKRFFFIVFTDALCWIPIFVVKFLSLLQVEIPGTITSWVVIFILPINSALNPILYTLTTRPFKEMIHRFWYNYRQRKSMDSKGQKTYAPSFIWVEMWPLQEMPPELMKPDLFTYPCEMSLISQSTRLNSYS
Assay: OVCAR5 cAMP assay (HTRF), RXFP1 agonist activity
Format: cell-based
Details: for EC50: OVCAR5 cells, cAMP HTRF, read-out: EC50 (nM), OVCAR 5 cells (cAMP); for Emax: OVCAR-5, maximal cAMP relative to H2-relaxin maximum (100%), read-out: EMax, OVCAR 5 cells (cAMP)
Outline: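 cAMP accumulation readout: after 1 mM IBMX for 40 min, endogenous-RXFP1 OVCAR5 cells got rising peptide concentrations without FCS, 30 min, 37° C, then lysis with HTRF cAMP reagents. Nonlinear regression gave EC50; Emax expressed relative to H2-relaxin maximum, same occasion.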

Row | SMILES | EC50 [nM] | Emax [%]
1 | CCCCCCCCCCCCCCCCCC(=O)N[C@@H](CCC(=O)N[C@@H](CCC(=O)N[C@@H](CCC(=O)NCCOCCOCC(=O)NCCOCCOCC(=O)NCCOCCOCC(=O)NCCCC[C@H](NC(=O)[C@H](CCCCNC(C)=O)NC(=O)[C@H](CCCCN)NC(=O)[C@H](CCCNC(N)=O)NC(=O)[C@](C)(CCCCN)NC(=O)[C@H](CO)NC(=O)[C@H](Cc1c[nH]c2ccccc12)NC(=O)[C@@H](NC(=O)[C@H](CO)NC(=O)[C@H](CCCC)NC(=O)CNC(=O)[C@H](CCC(=O)O)NC(=O)C(C)(C)NC(=O)C(C)(C)NC(=O)[C@@H](NC(=O)[C@H](CCCCNC(C)=O)NC(=O)[C@H](C)NC(=O)[C@H](CCCNC(=N)N)NC(=O)[C@@H](NC(=O)[C@H](CCCCN)NC(=O)[C@H](CCC(=O)O)NC(=O)[C@H](CCCNC(=N)N)NC(=O)CNC(=O)[C@H](CCC(=O)O)NC(=O)[C@H](CC(C)C)NC(C)=O)C(C)C)[C@@H](C)CC)[C@@H](C)O)C(N)=O)C(=O)O)C(=O)O)C(=O)O [compound 129] (Ac-LEGREKVRAK(Ac)I[Aib][Aib]EG[Nle]STWS[αMeK][Cit]KK(Ac)K([AEEA-AEEA-AEEA-γGlu-γGlu-γGlu-Stearoyl])-NH2) | 1 | 89
2 | CCCCCCCCCCCCCCCC(=O)N[C@@H](CCC(=O)N[C@@H](CCC(=O)N[C@@H](CCC(=O)N[C@@H](CCC(=O)NCCOCCOCC(=O)NCCOCCOCC(=O)NCCOCCOCC(=O)NCCOCCOCC(=O)NCCCC[C@H](NC(=O)[C@H](CCCCNC(C)=O)NC(=O)[C@H](CCCCN)NC(=O)[C@H](CCCNC(=N)N)NC(=O)C(C)(C)NC(=O)[C@H](CO)NC(=O)[C@H](Cc1c[nH]c2ccccc12)NC(=O)[C@@H](NC(=O)[C@H](CO)NC(=O)[C@H](CCCC)NC(=O)CNC(=O)[C@H](CCC(=O)O)NC(=O)C(C)(C)NC(=O)C(C)(C)NC(=O)[C@@H](NC(=O)[C@H](CCCCNC(C)=O)NC(=O)[C@H](C)NC(=O)[C@H](CCCNC(=N)N)NC(=O)[C@@H](NC(=O)[C@H](CCCCN)NC(=O)[C@H](CCC(=O)O)NC(=O)[C@H](CCCNC(=N)N)NC(=O)CNC(=O)[C@H](CCC(=O)O)NC(=O)[C@H](CC(C)C)NC(C)=O)C(C)C)[C@@H](C)CC)[C@@H](C)O)C(N)=O)C(=O)O)C(=O)O)C(=O)O)C(=O)O [compound 130] (Ac-LEGREKVRAK(Ac)I[Aib][Aib]EG[Nle]STWS[Aib]RKK(Ac)K([AEEA-AEEA-AEEA-AEEA-γGlu-γGlu-γGlu-γGlu-Palmitoyl])-NH2) | – | 93
3 | CCCCCCCCCCCCCCCCCC(=O)N[C@@H](CCC(=O)N[C@@H](CCC(=O)N[C@@H](CCC(=O)NCCOCCOCC(=O)NCCOCCOCC(=O)NCCOCCOCC(=O)NCCOCCOCC(=O)NCCCC[C@H](NC(=O)[C@H](CCCCNC(C)=O)NC(=O)[C@H](C)NC(=O)[C@H](CCCNC(N)=O)NC(=O)[C@](C)(CCCCN)NC(=O)[C@H](CO)NC(=O)[C@H](Cc1c[nH]c2ccccc12)NC(=O)[C@@H](NC(=O)[C@H](CO)NC(=O)[C@H](CCCC)NC(=O)CNC(=O)[C@H](CCC(=O)O)NC(=O)C(C)(C)NC(=O)C(C)(C)NC(=O)[C@@H](NC(=O)[C@H](CCCCNC(C)=O)NC(=O)[C@H](C)NC(=O)[C@H](CCCNC(=N)N)NC(=O)[C@@H](NC(=O)[C@H](CCCCN)NC(=O)[C@H](CCC(=O)O)NC(=O)[C@H](CCCNC(=N)N)NC(=O)CNC(=O)[C@H](CCC(=O)O)NC(=O)[C@H](CC(C)C)NC(C)=O)C(C)C)[C@@H](C)CC)[C@@H](C)O)C(N)=O)C(=O)O)C(=O)O)C(=O)O [compound 132] (Ac-LEGREKVRAK(Ac)I[Aib][Aib]EG[Nle]STWS[αMeK][Cit]AK(Ac)K([AEEA-AEEA-AEEA-AEEA-γGlu-γGlu-γGlu-Stearoyl])-NH2) | – | 87
4 | CCCCCCCCCCCCCCCCCC(=O)N[C@@H](CCC(=O)N[C@@H](CCC(=O)N[C@@H](CCC(=O)NCCOCCOCC(=O)NCCOCCOCC(=O)NCCOCCOCC(=O)NCCCC[C@H](NC(=O)[C@H](CCCCNC(C)=O)NC(=O)[C@H](CCCCN)NC(=O)[C@H](CCCNC(=N)NC)NC(=O)C(C)(C)NC(=O)[C@H](CO)NC(=O)[C@H](Cc1c[nH]c2ccccc12)NC(=O)[C@@H](NC(=O)[C@H](CO)NC(=O)[C@H](CCCC)NC(=O)CNC(=O)[C@H](CCC(=O)O)NC(=O)C(C)(C)NC(=O)C(C)(C)NC(=O)[C@@H](NC(=O)[C@H](CCCCNC(C)=O)NC(=O)[C@H](C)NC(=O)[C@H](CCCNC(=N)N)NC(=O)[C@@H](NC(=O)[C@H](CCCCN)NC(=O)[C@H](CCC(=O)O)NC(=O)[C@H](CCCNC(=N)N)NC(=O)CNC(=O)[C@H](CCC(=O)O)NC(=O)[C@H](CC(C)C)NC(C)=O)C(C)C)[C@@H](C)CC)[C@@H](C)O)C(N)=O)C(=O)O)C(=O)O)C(=O)O [compound 133] (Ac-LEGREKVRAK(Ac)I[Aib][Aib]EG[Nle]STWS[Aib][Arg(Me)]KK(Ac)K([AEEA-AEEA-AEEA-γGlu-γGlu-γGlu-Stearoyl])-NH2) | 0.01 | 83
5 | CCCCCCCCCCCCCCCCCC(=O)N[C@@H](CCC(=O)N[C@@H](CCC(=O)N[C@@H](CCC(=O)NCCOCCOCC(=O)NCCOCCOCC(=O)NCCOCCOCC(=O)NCCCC[C@H](NC(=O)[C@H](CCCCNC(C)=O)NC(=O)[C@H](CCCC[N+](C)(C)C)NC(=O)[C@H](CCCNC(=N)N)NC(=O)C(C)(C)NC(=O)[C@H](CO)NC(=O)[C@H](Cc1c[nH]c2ccccc12)NC(=O)[C@@H](NC(=O)[C@H](CO)NC(=O)[C@H](CCCC)NC(=O)CNC(=O)[C@H](CCC(=O)O)NC(=O)C(C)(C)NC(=O)C(C)(C)NC(=O)[C@@H](NC(=O)[C@H](CCCCNC(C)=O)NC(=O)[C@H](C)NC(=O)[C@H](CCCNC(=N)N)NC(=O)[C@@H](NC(=O)[C@H](CCCCN)NC(=O)[C@H](CCC(=O)O)NC(=O)[C@H](CCCNC(=N)N)NC(=O)CNC(=O)[C@H](CCC(=O)O)NC(=O)[C@H](CC(C)C)NC(C)=O)C(C)C)[C@@H](C)CC)[C@@H](C)O)C(N)=O)C(=O)O)C(=O)O)C(=O)O [compound 134] (Ac-LEGREKVRAK(Ac)I[Aib][Aib]EG[Nle]STWS[Aib]R[Lys(Me3)]K(Ac)K([AEEA-AEEA-AEEA-γGlu-γGlu-γGlu-Stearoyl])-NH2) | – | 100
6 | CCCCCCCCCCCCCCCCCC(=O)N[C@@H](CCC(=O)N[C@@H](CCC(=O)N[C@@H](CCC(=O)NCCOCCOCC(=O)NCCOCCOCC(=O)NCCOCCOCC(=O)NCCOCCOCC(=O)NCCCC[C@H](NC(=O)[C@H](CCCCNC(C)=O)NC(=O)[C@H](C)NC(=O)[C@H](CCCNC(=N)N)NC(=O)[C@](C)(CCCCN)NC(=O)[C@H](CO)NC(=O)[C@H](Cc1c[nH]c2ccccc12)NC(=O)[C@@H](NC(=O)[C@H](CO)NC(=O)[C@H](CCCC)NC(=O)CNC(=O)[C@H](CCC(=O)O)NC(=O)C(C)(C)NC(=O)C(C)(C)NC(=O)[C@@H](NC(=O)[C@H](CCCCNC(C)=O)NC(=O)[C@H](C)NC(=O)[C@H](CCCNC(=N)N)NC(=O)[C@@H](NC(=O)[C@H](CCCCN)NC(=O)[C@H](CCC(=O)O)NC(=O)[C@H](CCCNC(=N)N)NC(=O)CNC(=O)[C@H](CCC(=O)O)NC(=O)[C@H](CC(C)C)NC(C)=O)C(C)C)[C@@H](C)CC)[C@@H](C)O)C(N)=O)C(=O)O)C(=O)O)C(=O)O [compound 135] (Ac-LEGREKVRAK(Ac)I[Aib][Aib]EG[Nle]STWS[αMeK]RAK(Ac)K([AEEA-AEEA-AEEA-AEEA-γGlu-γGlu-γGlu-Stearoyl])-NH2) | – | 97
7 | CCCCCCCCCCCCCCCCCC(=O)N[C@@H](CCC(=O)N[C@@H](CCC(=O)N[C@@H](CCC(=O)NCCOCCOCC(=O)NCCOCCOCC(=O)NCCOCCOCC(=O)NCCCC[C@H](NC(=O)[C@H](CCCCNC(C)=O)NC(=O)[C@H](CCCC[N+](C)(C)C)NC(=O)[C@H](CCCNC(=N)NC)NC(=O)C(C)(C)NC(=O)[C@H](CO)NC(=O)[C@H](Cc1c[nH]c2ccccc12)NC(=O)[C@@H](NC(=O)[C@H](CO)NC(=O)[C@H](CCCC)NC(=O)CNC(=O)[C@H](CCC(=O)O)NC(=O)C(C)(C)NC(=O)C(C)(C)NC(=O)[C@@H](NC(=O)[C@H](CCCCNC(C)=O)NC(=O)[C@H](C)NC(=O)[C@H](CCCNC(=N)N)NC(=O)[C@@H](NC(=O)[C@H](CCCCN)NC(=O)[C@H](CCC(=O)O)NC(=O)[C@H](CCCNC(=N)N)NC(=O)CNC(=O)[C@H](CCC(=O)O)NC(=O)[C@H](CC(C)C)NC(C)=O)C(C)C)[C@@H](C)CC)[C@@H](C)O)C(N)=O)C(=O)O)C(=O)O)C(=O)O [compound 137] (Ac-LEGREKVRAK(Ac)I[Aib][Aib]EG[Nle]STWS[Aib][Arg(Me)][Lys(Me3)]K(Ac)K([AEEA-AEEA-AEEA-γGlu-γGlu-γGlu-Stearoyl])-NH2) | 0.21 | 92
